Data: PubChem BioAssay (NCI)
Where “and” joins values, the source holds several entries; their conditions need not be identical. Equal values may be shown once.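 All cell lines were grown in 96-well plates and treated with compound for 48 hours. GI50 marks 50% less growth. TGI marks complete inhibition of growth.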

Columns and labels:
Assay in all cases: NCI anticancer screen, dose series, 48 h
[1] = system: SK-MEL-28 melanoma
[2] = system: OVCAR-8 ovarian
[3] = system: NCI-H23 lung
[4] = system: NCI-H460 lung
[5] = system: A549 NSCLC
[6] = system: SR leukemia
[7] = system: HCC-2998 colon
[8] = system: CAKI-1 renal
[9] = system: UACC-257 melanoma
[10] = system: NCI-H226 lung

Question: Which TGI [1] does the source give for `CCN(CC)CCC(=O)N1CCc2c([nH]c3ccccc23)C1c1cccnc1` (configuration not stated) here?
Answer: > 100 µM

Question: And the TGI [2]?
Answer: > 100 µM

Question: And the TGI [3]?
Answer: > 100 µM

Question: And the TGI [4]?
Answer: > 100 µM

Question: And the TGI [5]?
Answer: > 100 µM

Question: And the TGI [6]?
Answer: > 100 µM

Question: What about the TGI [7] of the same molecule?
Answer: > 100 µM

Question: What about the TGI [8] of the same molecule?
Answer: > 100 µM

Question: And the TGI [9]?
Answer: > 100 µM

Question: What does the source list for `Cc1[nH]n(-c2ccc(S(=O)(=O)O)cc2)c(=O)c1N=Nc1ccccc1`?
Answer: TGI [1]: > 100 µM; TGI [2]: > 100 µM; TGI [3]: > 100 µM; TGI [4]: > 100 µM; TGI [5]: > 100 µM; TGI [6]: > 100 µM; TGI [7]: > 100 µM; TGI [8]: > 100 µM; TGI [9]: > 100 µM

Question: With `N#CCCN(CCC#N)c1ccc(/C=N\c2nc(-c3ccccc3)cs2)cc1` as the molecule, how does the TGI [1] read?
Answer: > 100 µM

Question: And the TGI [2]?
Answer: > 100 µM

Question: And the TGI [3]?
Answer: > 100 µM

Question: What about the TGI [4] of the same molecule?
Answer: > 100 µM

Question: And the TGI [5]?
Answer: > 100 µM

Question: And the TGI [10]?
Answer: > 100 µM

Question: And the TGI [8]?
Answer: > 100 µM

Question: What about the TGI [9] of the same molecule?
Answer: > 100 µM

Question: `COc1ccc2cc3[n+](cc2c1OC)CCc1cc2c(cc1-3)OCO2` was tested. Which GI50 [1] did it give?
Answer: 11.2 µM and 17.2 µM

Question: And the GI50 [2]?
Answer: 3.69 µM

Question: What about the GI50 [3] of the same molecule?
Answer: 6.34 µM

Question: And the GI50 [4]?
Answer: 6.22 µM

Question: What about the TGI [5] of the same molecule?
Answer: > 325 µM

Question: What about the TGI [6] of the same molecule?
Answer: > 100 µM and 71.5 µM and > 75.6 µM

Question: And the TGI [10]?
Answer: > 100 µM and 94.9 µM and 67.5 µM

Question: And the GI50 [8]?
Answer: > 100 µM and 16.8 µM and 65 µM

Question: And the TGI [8]?
Answer: > 100 µM and 210 µM

Question: `CN(C)c1ccc(/C=C/c2ccnc3ccccc23)cc1N` was tested. Which TGI [1] did it give?
Answer: 26.3 µM

Question: And the TGI [2]?
Answer: 22.1 µM

Question: What about the TGI [3] of the same molecule?
Answer: 21.8 µM

Question: What about the TGI [4] of the same molecule?
Answer: 22.3 µM

Question: And the TGI [5]?
Answer: 32.6 µM

Question: And the TGI [6]?
Answer: 5.87 µM

Question: What about the TGI [10] of the same molecule?
Answer: 36.5 µM

Question: And the TGI [7]?
Answer: 25.3 µM

Question: What about the TGI [9] of the same molecule?
Answer: 7.75 µM

Question: How did the GI50 [1] turn out when `Oc1ccccc1Nc1nc2ccccc2c2occc12` was run?
Answer: 15.1 µM

Question: What about the TGI [1] of the same molecule?
Answer: 31.8 µM

Question: What about the GI50 [2] of the same molecule?
Answer: 15.4 µM

Question: What about the TGI [2] of the same molecule?
Answer: 35.8 µM

Question: What about the GI50 [3] of the same molecule?
Answer: 4.48 µM

Question: And the TGI [3]?
Answer: 17.5 µM

Question: What about the GI50 [4] of the same molecule?
Answer: 14.1 µM

Question: What about the TGI [4] of the same molecule?
Answer: 27.6 µM

Question: And the GI50 [5]?
Answer: 14.5 µM

Question: What about the TGI [5] of the same molecule?
Answer: 27.5 µM

Question: What about the GI50 [6] of the same molecule?
Answer: 14.8 µM

Question: And the TGI [6]?
Answer: > 100 µM

Question: What about the GI50 [7] of the same molecule?
Answer: 3.11 µM

Question: What about the TGI [7] of the same molecule?
Answer: 10.3 µM

Question: And the GI50 [8]?
Answer: 1.78 µM

Question: What about the TGI [8] of the same molecule?
Answer: 12.8 µM

Question: And the GI50 [9]?
Answer: 16.1 µM

Question: And the TGI [9]?
Answer: 29.6 µM

Question: How did the TGI [1] turn out when `CCOP(=O)(OCC)/C(C#N)=C/c1ccc[nH]1` was run?
Answer: > 100 µM

Question: And the TGI [2]?
Answer: > 100 µM

Question: And the TGI [3]?
Answer: > 100 µM

Question: And the TGI [4]?
Answer: > 100 µM

Question: And the TGI [5]?
Answer: > 100 µM

Question: What about the TGI [6] of the same molecule?
Answer: > 100 µM

Question: What about the TGI [10] of the same molecule?
Answer: > 100 µM

Question: What about the TGI [8] of the same molecule?
Answer: > 100 µM

Question: What about the TGI [9] of the same molecule?
Answer: > 100 µM

Question: How did the GI50 [1] turn out when `CC(=O)c1c(O)ccc2c(C)c(C(=O)O)oc12` was run?
Answer: > 100 µM

Question: And the TGI [1]?
Answer: > 100 µM

Question: What about the GI50 [2] of the same molecule?
Answer: > 100 µM

Question: And the TGI [2]?
Answer: > 100 µM

Question: What about the GI50 [3] of the same molecule?
Answer: > 100 µM

Question: And the TGI [3]?
Answer: > 100 µM

Question: And the GI50 [4]?
Answer: > 100 µM

Question: And the TGI [4]?
Answer: > 100 µM

Question: What about the GI50 [5] of the same molecule?
Answer: > 100 µM

Question: And the TGI [5]?
Answer: > 100 µM

Question: And the GI50 [10]?
Answer: 0.0188 µM

Question: And the TGI [10]?
Answer: 12.2 µM

Question: And the GI50 [7]?
Answer: 55.8 µM

Question: What about the TGI [7] of the same molecule?
Answer: > 100 µM

Question: And the GI50 [8]?
Answer: > 100 µM

Question: And the TGI [8]?
Answer: > 100 µM

Question: What about the GI50 [9] of the same molecule?
Answer: > 100 µM

Question: And the TGI [9]?
Answer: > 100 µM

Question: Which results are given for `COc1cc(-n2cc(-c3ccc(F)cc3)[nH]c2=S)cc(OC)c1OC`?
Answer: GI50 [1]: > 100 µM; TGI [1]: > 100 µM; GI50 [2]: > 100 µM; TGI [2]: > 100 µM; GI50 [3]: > 100 µM; TGI [3]: > 100 µM; GI50 [4]: > 100 µM; TGI [4]: > 100 µM; GI50 [5]: > 100 µM; TGI [5]: > 100 µM; GI50 [10]: > 100 µM; TGI [10]: > 100 µM; GI50 [7]: > 100 µM; TGI [7]: > 100 µM; GI50 [8]: 38.1 µM; TGI [8]: > 100 µM; GI50 [9]: > 100 µM; TGI [9]: > 100 µM
